pIC50: −log10 of the molar value. Like-named read-outs stand apart in the source and are kept apart here.
Assays:
[1] = molecular target: human recombinant FGFR1 catalytic structural domain protein (Homo sapiens (Human), UniProt P11362); test: FGFR1 activity inhibition test (HTRF kinase assay); type: biochemical; conditions: 40 μM ATP
Experimental: FGFR1 Activity Inhibition Test
The influence of the compound according to the present invention on the activity of fibroblast growth factor receptor 1 (FGFR1) was evaluated by an in vitro kinase assay experiment.
(§1) The experimental method is summarized as follows:
The in vitro activity of FGFR1 was determined by assaying the phosphorylation level of the substrate in the kinase reaction, by means of an HTRF kinase assay kit.
(§2) If the IC50 value of the compound was very low, the initial concentration of the compound could be reduced.
(§3) After 60 min, the enzyme reaction was terminated by EDTA in the assay solution, and the phosphorylated products were identified by both the Eu^3+ labeled cage-shaped antibody (donor) and the streptavidin labeled XL665 antibody (receptor) at the same time. […] The inhibition percentage of the compound against FGFR1 activity could be calculated with the following formula: Inhibition percentage=100−100*(signalcompound−signalnegative control)/(signalpositive control−signalnegative control)
The IC50 value of the compound was calculated by the following formula, from 10 concentration points, with XLfit (ID Business Solutions Ltd., UK): Y=Bottom+(Top−Bottom)/(1+10^((Log IC50−X)*slope factor))
(§4) Where, Y is the inhibition percentage, Bottom is the bottom plateau of the curve (the bottom plateau of the S-type curve), Top is the top plateau of the curve (the top plateau of the S-type curve), and X is the log value of the compound concentration to be measured.

[2] = molecular target: human recombinant FGFR4 catalytic structural domain protein (Homo sapiens (Human), UniProt P22455); test: FGFR4 activity inhibition test (HTRF kinase assay); type: biochemical; conditions: 90 μM ATP
Experimental: FGFR4 Activity Inhibition Test
The influence of the compound according to the present invention on the activity of fibroblast growth factor receptor 4 (FGFR4) was evaluated by an in vitro kinase assay experiment.
as §1
The in vitro activity of FGFR4 was determined by assaying the phosphorylation level of the substrate in the kinase reaction, by means of an HTRF kinase assay kit.
as §2
as §3, with “FGFR4” for “FGFR1”
The IC50 value of the compound was calculated by the following formula, from 10 concentration points, with XLfit (ID Business Solutions Ltd., UK): Y=Bottom+(Top−Bottom)/(1+10^((Log IC50−X)*slope factor)) Where, Y is the inhibition percentage, Bottom is the bottom plateau of the curve (the bottom plateau of the S-type curve), Top is the top plateau of the curve (the top plateau of the S-type curve), and X is the log value of the compound concentration to be measured.

Hep3B cells = test: Hep3B cell proliferation inhibition test (CellTiter-Glo); type: cell-based; conditions: Homo sapiens, 72 h, CTG
Experimental: Hep3B Cell Proliferation Inhibition Test
The influence of the compound according to the present invention on Hep3B cell proliferation was evaluated by a luminescence cell viability test.
as §1
A CellTilter-Glo (CTG) assay kit was used to detect an indicator ATP of active cellular metabolism by means of a unique stable luciferase, and the luminous signal produced in the test was in direct proportion to the count of active cells in the medium, thereby to detect the cell proliferation of Hep3B.
A CellTilter-Glo agent (Promega, G7572) was comprised of a CellTilter-Glo lyophilized powder and a CellTilter-Glo buffer, and the lyophilized powder was dissolved into the buffer in use.
Hep3B cells (ATCC, HB-8064) (cell source: Shanghai Academy of Life Sciences, Chinese Academy of Sciences) were cultured in a DMEM complete medium (Thermofisher, 11995073) containing a 10% FBS (GBICO, 10099-141) and 100 units/ml mycillin mixed solution (Thermofisher, 15140122). When the cells coverage reached 80-90% in the culture vessel, after the cells were digested and blown about with 0.25% pancreatin (containing EDTA) (Thermofisher, 25200056), they were planted in a white 384 well plate (Thermofisher, 164610), with 1000 cells in each well (27 μl of a DMEM complete medium), and then the 384 well plate was placed into an incubator at 37° C. and 5% CO2 and cultured overnight (18-20 h). The compound was dissolved and diluted in 100% DMSO to 100 μM, then 4-fold-series diluted with DMSO to a minimum concentration of 0.0061 μM, and each concentration point was 50-fold diluted with the FBS-free DMEM medium. If the IC50 value of the compound was very low, the initial concentration of the compound could be reduced. […] This 384 well plate was placed into an incubator at 37° C. and 5% CO2 for further culture, taken out after 72 h, and stood at room temperature for 30 min. The CTG agent was also taken out and balanced to room temperature. 15 μl of the CTG agent was added into each well, and placed onto a shaker to be gently shaken for 3 min to ensure sufficient cell lysis. After 10 min of standing to allow the luminescence signal to be stable, the luminescence signal was read with EnVision (Perkin Elmer).
The inhibition percentage of the compound against Hep3B cell proliferation could be calculated with the following formula: Inhibition percentage=100−100*(signalcompound−signalnegative control)/(signalpositive control−signalnegative control)
The IC50 value of the compound was calculated by the following formula, from 8 concentration points, with XLfit (ID Business Solutions Ltd., UK): Y=Bottom+(Top−Bottom)/(1+10^((Log IC50−X)*slope factor))
as §4

[3] = system: FGF19/FGFR4-overexpressed Hep3B hepatocellular carcinoma (HCC) xenograft tumors; type: in vivo; conditions: for TGI value / mean tumor size: day 18
Experimental: Data points represent group mean, error bars represent standard error of the mean (SEM). *P<0.05, **P<0.01, ***P<0.001, ****P<0.0001, NS P>0.05 vs vehicle group.
The relative change of body weights (% RCBW) was calculated based on the following formula: RCBW (%)=(BWi−BW0)/BW0×100%, BWi was the bodyweight on the day of dosing and BW0 was the bodyweight on the first day of administration. Data points represent percent group mean change in BW. Error bars represent standard error of the mean (SEM).
Dosing was initiated on day 0 and effects on tumor growth were evaluated by measuring percent tumor growth inhibition (TGI) at the end of the study. Tolerability was assessed by body weight loss, lethality, and clinical signs of adverse treatment-related side effects. Tumor volumes and body weights were measured twice per week in the administration period. The percentage of TGI was determined on day 18 of the study. The difference between the mean values of tumor volume in treatment and vehicle groups was analyzed for significance using one-way ANOVA (followed by Dennett's test) at each time point and a P<0.05 was considered to be statistically significant.

[4] = 100 mg/kg BID for 18 days, oral

Chain of human recombinant FGFR4 catalytic structural domain protein (P22455 460-802): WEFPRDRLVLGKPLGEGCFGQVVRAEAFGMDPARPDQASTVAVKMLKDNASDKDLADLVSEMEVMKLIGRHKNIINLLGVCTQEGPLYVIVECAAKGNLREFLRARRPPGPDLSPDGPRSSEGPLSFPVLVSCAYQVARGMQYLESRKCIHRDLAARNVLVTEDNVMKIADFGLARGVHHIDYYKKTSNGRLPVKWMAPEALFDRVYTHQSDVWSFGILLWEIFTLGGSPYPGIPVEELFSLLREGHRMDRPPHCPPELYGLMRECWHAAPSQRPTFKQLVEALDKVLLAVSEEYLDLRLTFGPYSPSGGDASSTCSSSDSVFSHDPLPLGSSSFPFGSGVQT
Chain of human recombinant FGFR1 catalytic structural domain protein (P11362 other isoform, or with tags, fused parts or gaps): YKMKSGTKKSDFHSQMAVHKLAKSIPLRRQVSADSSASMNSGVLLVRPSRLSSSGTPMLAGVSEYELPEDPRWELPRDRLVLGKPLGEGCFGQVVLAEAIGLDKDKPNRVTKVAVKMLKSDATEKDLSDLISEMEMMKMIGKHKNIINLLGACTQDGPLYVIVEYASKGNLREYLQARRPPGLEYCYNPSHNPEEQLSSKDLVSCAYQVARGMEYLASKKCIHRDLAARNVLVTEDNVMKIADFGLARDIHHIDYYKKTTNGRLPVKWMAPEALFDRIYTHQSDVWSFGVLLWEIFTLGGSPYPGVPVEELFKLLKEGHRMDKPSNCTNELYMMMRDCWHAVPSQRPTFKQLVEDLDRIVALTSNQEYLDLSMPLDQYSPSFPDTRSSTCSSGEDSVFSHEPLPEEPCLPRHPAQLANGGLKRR

| pIC50 [1] | pIC50 [2] | pIC50 (Hep3B cells) | SMILES | other results |
| --- | --- | --- | --- | --- |
| < 6.00 | > 8.00 | – | COCCOc1cc(NC(=O)N(C)c2cccc(C=O)n2)ncc1C#N [Compound 7, 3-(5-cyano-4-(2-methoxyethoxy)pyrid-2-yl)-1-(6-formylpyrid-2-yl)-1-methylurea] | – |
| – | – | > 7.30 | COCCNc1cc(NC(=O)N(C)c2ccc(CN3CCOCC3=O)c(C=O)n2)ncc1C#N [Compound 9, 3-(5-cyano-4-((2-methoxyethyl)amino)pyrid-2-yl)-1-(6-formyl-5-((3-carbonylmorpholino)methyl)pyrid-2-yl)-1-methylurea] | – |
| – | – | 7.00 to 7.30 | CC(C)Nc1cc(NC(=O)N(C)c2ccc(CN3CCOCC3=O)c(C=O)n2)ncc1C#N [Compound 10, 3-(5-cyano-4-(isopropylamino)pyrid-2-yl)-1-(6-formyl-5-((3-carbonylmorpholino)methyl)pyrid-2-yl)-1-methylurea] | – |
| – | – | > 7.30 | COCCOc1cc(NC(=O)N(C)c2ccc(CN3CCOCC3=O)c(C=O)n2)ncc1C#N [Compound 12] | – |
| – | – | > 7.30 | CC(C)Nc1cc(NC(=O)N(C)c2ccc(CN3CCN(C)CC3=O)c(C=O)n2)ncc1C#N [Compound 16, 3-(5-cyano-4-(isopropylamino)pyrid-2-yl)-1-(6-formyl-5-((4-methyl-2-carbonylpiperazin-1-yl)methyl)pyrid-2-yl)-1-methylurea] | – |
| – | – | 7.00 to 7.30 | CC(C)Oc1cc(NC(=O)N(C)c2ccc(CN3CCN(C)CC3=O)c(C=O)n2)ncc1C#N [Compound 19, 3-(5-cyano-4-isopropoxypyrid-2-yl)-1-(6-formyl-5-((4-methyl-2-carbonylpiperazin-1-yl)methyl)pyrid-2-yl)-1-methylurea] | – |

More lines, now with the values behind:

| SMILES | pIC50 [1] | pIC50 [2] | pIC50 (Hep3B cells) | other results |
| --- | --- | --- | --- | --- |
| COCCNc1cc(NC(=O)N(C)c2cccc(C=O)n2)ncc1C#N [Compound 1, 3-(5-cyano-4-((2-methoxyethyl)amino)pyrid-2-yl)-1-(6-formylpyrid-2-yl)-1-methyl urea] | < 6.00 | – | – | – |
| CN(C(=O)Nc1cc(Cl)ncn1)c1cccc(C=O)n1 [Compound 2, 3-(6-chloropyrimidin-4-yl)-1-(6-formylpyrid-2-yl)-1-methylurea] | < 6.00 | 6.00 to 7.00 | – | – |
| CN(C(=O)Nc1ccc(C#N)cn1)c1cccc(C=O)n1 [Compound 3, 3-(5-cyanopyrid-2-yl)-1-(6-formylpyrid-2-yl)-1-methylurea] | < 6.00 | 7.00 to 8.00 | – | – |
| CC(C)Nc1cc(NC(=O)N(C)c2cccc(C=O)n2)ncc1C#N [Compound 5, 3-(5-cyano-4-(isopropylamino)pyrid-2-yl)-1-(6-formylpyrid-2-yl)-1-methylurea] | < 6.00 | > 8.00 | – | – |
| CC(C)Oc1cc(NC(=O)N(C)c2cccc(C=O)n2)ncc1C#N [Compound 6, 3-(5-cyano-4-isopropoxypyrid-2-yl)-1-(6-formylpyrid-2-yl)-1-methylurea] | < 6.00 | > 8.00 | – | – |
| COCCNc1cc(NC(=O)N(C)c2nccc(C=O)n2)ncc1C#N [Compound 8, 3-(5-cyano-4-((2-methoxyethyl)amino)pyrid-2-yl)-1-(4-formylpyrimidin-2-yl)-1-methylurea] | < 6.00 | 6.00 to 7.00 | – | – |
| CN1CCN(Cc2ccc(N(C)C(=O)Nc3cc(Cl)c(C#N)cn3)nc2C=O)C(=O)C1 [Compound 17, 3-(4-chloro-5-cyanopyrid-2-yl)-1-(6-formyl-5-((4-methyl-2-carbonylpiperazin-1-yl)methyl)pyrid-2-yl)-1-methyl urea] | – | 6.00 to 7.00 | – | – |
| COC[C@@H](C)Oc1cc(NC(=O)N(C)c2ccc(CN3CCN(C)CC3=O)c(C=O)n2)ncc1C#N [Compound 18, (R)-3-(5-cyano-4-((1-methoxyprop-2-yl)oxo)pyrid-2-yl)-1-(6-formyl-5-((4-methyl-2-carbonylpiperazin-1-yl)methyl)pyrid-2-yl)-1-methylurea] | – | – | > 7.30 | TGI value ([3]; 10 mg/kg BID for 18 days, oral): 96.4%; mean tumor size ([3]; 10 mg/kg BID for 18 days, oral): 230 mm^3; TGI value ([3]; 30 mg/kg BID for 18 days, oral): 108.3%; mean tumor size ([3]; 30 mg/kg BID for 18 days, oral): 16 mm^3; TGI value ([3]; 60 mg/kg QD for 18 days, oral): 104.4%; mean tumor size ([3]; 60 mg/kg QD for 18 days, oral): 86 mm^3; TGI value [3, 4]: 109.2%; mean tumor size [3, 4]: 0 mm^3; tolerability by tumor-bearing animals ([3]; all dose levels): well-tolerated; body weight loss during the treatment ([3]; all groups): didn't exhibit significant body weight loss |
| CNC(=O)c1cc(Oc2ccc(NC(=O)Nc3ccc(Cl)c(C(F)(F)F)c3)cc2)ccn1 [sorafenib, reference compound] | – | – | – | antitumor activity (in words) ([3]; 40 mg/kg QD, oral): some antitumor activity |

— patent US10590109B2, “Heterocyclic compounds used as FGFR inhibitors” (Nanjing InnoCare Pharma Tech Co., Ltd., priority 2016, dated 2020)
